Laboratory results from US9108854B2, “Biocidal colloidal dispersions of silica particles with silver ions adsorbed thereon” (PREBONA AB, priority 2009, dated 2015).

Tested on: fungi
Test: Fungal growth on treated slices of French bread
Details: slice brushed on all sides with 1000 ppm Ag; 3 days in warm and humid atmosphere, 20-35° C.
Protocol: Slices of French bread from a local baker were used as substrates for fungal growth. • 1. Bread slice was brushed on all sides with the sol containing 1000 ppm Ag • 2. […] Bread slice was untreated.
The bread slices on a dinner plate were put in a plastic bag, which in turn was placed in a glassed-in porch where the temperature varied between 20 and 35° C. over the day.

silver nitrate [AgNO3 solution]
resistance of bread slice to fungi attack: affords some protection
